Values belong to the compound of their own block, whether it stands above or below them.
Tests used:
[1] = system: sheddases, proteinases of the ADAM family; settings: cited from earlier work
[2] = system: MMP9 specific bands (gelatinolytic activity) in saliva; settings: control gels treated with EDTA
Protocol: Zymography: 20 μl of each saliva sample was mixed with 5 μl of a sample buffer containing 250 mM Tris pH 6.8, 25% glycerol, 10% (w/v) SDS, 0.01% bromophenol blue and loaded onto 10% SDS-PAGE gels containing 0.25% porcine gelatin (Sigma). Molecular weight markers (Biowhittaker Molecular Applications, Rockland, Me., USA) and a positive control sample of conditioned medium from the human fibrosarcoma cell line HT-1080 were also included on the gel. Following electrophoresis, the gels were washed twice for 15 mins each in 2.5% Triton X-100 and then incubated overnight at 37° C. in a substrate buffer containing 50 mM Tris-HCl, pH 7.6 and 10 mM CaCl2 in the absence or presence of proteinase inhibitors EDTA (30 mM), BB-94 (20 μM), BMS-275291 (20 μM) or B428 (20 μM). Following incubation, the gels were stained with a solution of 0.5% (w/v) Coomassie Blue R250 prepared in 50% methanol: 10% acetic acid. Once stained, the gels were briefly de-stained in the same solution without the Coomassie Blue and then stored in distilled water. Areas of gelatinolytic activity appeared cleared against the blue background of the coomassie-stained undigested gelatin.

[3] = system: metalloproteinase activity in human saliva samples; experiment: Proteinase activity assay in saliva with DQ-gelatin (fluorometry); type: biochemical; settings: compared with BB-94
Protocol: Proteinase activity assay: Total proteolytic activity in saliva samples was measured by fluorometry using the generic substrate DQ-gelatin (Molecular Probes Inc). An aliquot (usually 50 μl per 160 μl total assay volume) of each sample was mixed with substrate (10 μg/ml) in tricine buffer (50 mM Tricine, pH 7.4; 200 mM NaCl; 10 mM CaCl2; 0.05 mM ZnSO4; 0.005% Brij 35) and incubated at 37° C. An inhibitor cocktail comprising of inhibitors of serine, cysteine and aspartyl proteinases (‘Complete—EDTA free’, Roche Biochemicals, San Diego, Calif.) was included in the reactions for all the human saliva samples. Fluorometric measurements (excitation at 485 nm and emission at 538 nm) recorded every 10-20 minutes for 2 hours. These values were used to calculate an initial rate of enzyme activity (Fluorescence units/minute) which, for the murine samples, was then normalized for amylase concentration. To measure non-metalloproteinase activity, EDTA at a concentration of 30 mM was included in the assay mixture. Metalloproteinase (MP) activity was then determined as total less the EDTA-inhibited activity. Similarly, matrix metalloproteinase (MMP) activity, defined as the BB-94-inhibitible activity, was determined by subtracting the activity in the presence of BB-94 (25 μM) from total proteinase activity. […]

SMILES: CNC(=O)[C@H](Cc1ccccc1)NC(=O)[C@H](CC(C)C)[C@H](CSc1cccs1)C(=O)NO [BB-94]
activity against sheddases [1]: activity against sheddases

SMILES: O=C(O)CN(CCN(CC(=O)O)CC(=O)O)CC(=O)O [EDTA]
gelatinolytic bands on zymography gels [2]: showed no bands

inhibition of salivary metalloproteinase activity (DQ-gelatin cleavage) [3]: results comparable to those with BB-94
SMILES: CNC(=O)[C@@H](NC(=O)[C@H](CC(C)C)NC(=O)[C@@H](S)CCN1C(=O)N(C)C(C)(C)C1=O)C(C)(C)C [BMS-275291]
